Assay results: article PMC11961260 (Royal Society Open Science, 2025)
Peptide text beside a SMILES is read from it.

What was measured:
[1] = target: T1, SARS-CoV-2 main protease (M^pro) (Severe acute respiratory syndrome coronavirus 2, UniProt P0DTD1); assay: SARS-CoV-2 main protease inhibitor screening assay (Cayman Chemicals, Catalogue Number 701960); type: biochemical; settings: for response in SARS-CoV-2 M^pro inhibition screening (in words: active/inactive) / % inhibition of SARS-CoV-2 M^pro: dendron 20 μM; for % inhibition of SARS-CoV-2 M^pro: 30 min pre-incubation, 2 h with substrate, room temperature, three wells
T1 construct: purchased Cayman Chemicals 701960

[2] = no reference given; cited from earlier work
SARS-CoV-2 main protease = settings: read-out: IC50 value of the positive control; cited from earlier work
[3] = fluorescence ex 340 nm/em 490 nm

Molecule: O=C(O)CC[C@H](NC(=O)[C@H](Cc1c[nH]c2ccccc12)NC(=O)CC[C@H](NC(=O)CNC(=O)CCN1c2ccccc2Sc2ccccc21)C(=O)N[C@@H](Cc1c[nH]c2ccccc12)C(=O)N[C@@H](CCC(=O)O)C(=O)O)C(=O)O [compound 114, Ptz-GE(WE-COOH)WE-COOH] (HELM PEPTIDE1{[O=C(CCN1c2ccccc2Sc2ccccc21)[*:2]].G.E.W.E}|PEPTIDE2{W.E}$PEPTIDE1,PEPTIDE2,3:R3-1:R1$$$V2.0)
- response in SARS-CoV-2 M^pro inhibition screening (in words: active/inactive) [1]: active
- % inhibition of SARS-CoV-2 M^pro [1, 3]: 33%
- IC50 ([1]; figure 3B, fluorescence ex 340 nm/em 490 nm): 65 µM

Molecule: Boc-E(WE-COOH)WE-COOH [C91]
- response in SARS-CoV-2 M^pro inhibition screening (in words: active/inactive) [1]: non-responsiveness
- % inhibition of SARS-CoV-2 M^pro [1, 3]: < 25%

Molecule: Ptz-GE(FE-COOH)FE-COOH [compound 112]
- response in SARS-CoV-2 M^pro inhibition screening (in words: active/inactive) [1]: active
- % inhibition of SARS-CoV-2 M^pro [1, 3]: 25%

Molecule: Ptz-GE(wE-COOH)wE-COOH [169C]
- response in SARS-CoV-2 M^pro inhibition screening (in words: active/inactive) [1]: active
- % inhibition of SARS-CoV-2 M^pro [1, 3]: 31%

Molecule: N[C@@H](CCC(=O)O)C(=O)O [glutamic acid]
- pKa1(COOH) [2]: 2.19
- pKa2(side chain COOH) [2]: 4.25

Molecule: Ptz-GE(HE-COOH)HE-COOH [169A]
- response in SARS-CoV-2 M^pro inhibition screening (in words: active/inactive) [1]: inactive
- % inhibition of SARS-CoV-2 M^pro [1, 3]: < 25%

Molecule: CC(C)C[C@H](NC(=O)OCc1ccccc1)C(=O)N[C@@H](CC1CCNC1=O)C(O)S(=O)(=O)O (stereo partly shown) [GC376]
- IC50 (SARS-CoV-2 main protease): 0.15 ± 0.03 µM

Molecule: Ptz-GE(YE-COOH)YE-COOH [compound 113]
- response in SARS-CoV-2 M^pro inhibition screening (in words: active/inactive) [1]: inactive
- % inhibition of SARS-CoV-2 M^pro [1, 3]: < 25%
